Experimental data reported in patent US20170190671A1, “BIS(ARYL)CATECHOL DERIVATIVES AS HERBICIDES” (E I DU PONT DE NEMOURS AND COMPANY, priority 2014, published 2017).

Legend:
Type in all cases: in vivo
[1] = tested on: barnyardgrass (Echinochloa crus-galli); experiment: Test B flooded paddy; conditions: Echinochloa crus-galli, 336 h; 250 g ai/ha, Flood, 13 to 15 days, scale 0 (no effect) to 100 (complete control); read-out: Plant response rating, Barnyardgrass
Method in brief: (§1)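 Ratings were visual and made relative to untreated controls after 13 to 15 greenhouse days.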

[2] = tested on: ducksalad (Heteranthera limosa); experiment: Test B flooded paddy; conditions: Heteranthera limosa, 336 h; 250 g ai/ha, Flood, 13 to 15 days, scale 0 (no effect) to 100 (complete control); read-out: Plant response rating, Ducksalad
Method in brief: as §1

rice (Oryza sativa) = experiment: Test B flooded paddy; conditions: Oryza sativa, 336 h; 250 g ai/ha, Flood, 13 to 15 days, scale 0 (no effect) to 100 (complete control); read-out: Plant response rating, Rice
Method in brief: as §1

[3] = tested on: sedge, umbrella (small-flower umbrella sedge, Cyperus difformis); experiment: Test B flooded paddy; conditions: Cyperus difformis, 336 h; 250 g ai/ha, Flood, 13 to 15 days, scale 0 (no effect) to 100 (complete control); read-out: Plant response rating, Sedge, Umbrella
Method in brief: as §1

[4] = tested on: Italian ryegrass (Lolium multiflorum); experiment: Test A preemergence; conditions: Lolium multiflorum, pre-emergence, 240 h, 0 to 100 scale (0 no effect, 100 complete control), read-out: Ryegrass, Italian plant response rating; for pest or weed control at 31 g/ha: 31 g ai/ha; for pest or weed control at 125 g/ha: 125 g ai/ha
Method in brief: (§2)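 Compounds in non-phytotoxic solvent with surfactant applied as soil spray preemergence, or postemergence to plants 2-10 cm at one- to two-leaf stage, in loam/sand. After approximately 10 days in greenhouse, injury rated visually versus untreated controls, 0 (no effect) to 100 (complete control).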

[5] = tested on: barnyardgrass (Echinochloa crus-galli); experiment: Test A preemergence; conditions: Echinochloa crus-galli, pre-emergence, 240 h, 0 to 100 scale (0 no effect, 100 complete control), read-out: Barnyardgrass plant response rating; for pest or weed control at 31 g/ha: 31 g ai/ha; for pest or weed control at 125 g/ha: 125 g ai/ha
Method in brief: as §2

[6] = tested on: giant foxtail (Setaria faberii); experiment: Test A preemergence; conditions: Setaria faberi, pre-emergence, 240 h, 0 to 100 scale (0 no effect, 100 complete control), read-out: Foxtail, Giant plant response rating; for pest or weed control at 31 g/ha: 31 g ai/ha; for pest or weed control at 125 g/ha: 125 g ai/ha
Method in brief: as §2

kochia (Kochia scoparia) [7] = experiment: Test A preemergence; conditions: Bassia scoparia, pre-emergence, 240 h, 0 to 100 scale (0 no effect, 100 complete control), read-out: Kochia plant response rating; for pest or weed control at 31 g/ha: 31 g ai/ha; for pest or weed control at 125 g/ha: 125 g ai/ha
Method in brief: as §2

[8] = tested on: pigweed (Amaranthus retroflexus); experiment: Test A preemergence; conditions: Amaranthus retroflexus, pre-emergence, 240 h, 0 to 100 scale (0 no effect, 100 complete control), read-out: Pigweed plant response rating; for pest or weed control at 31 g/ha: 31 g ai/ha; for pest or weed control at 125 g/ha: 125 g ai/ha
Method in brief: as §2

[9] = tested on: ragweed (common ragweed, Ambrosia elatior); experiment: Test A preemergence; conditions: Ambrosia artemisiifolia, pre-emergence, 240 h, 0 to 100 scale (0 no effect, 100 complete control), read-out: Ragweed plant response rating; for pest or weed control at 31 g/ha: 31 g ai/ha; for pest or weed control at 125 g/ha: 125 g ai/ha
Method in brief: as §2

[10] = tested on: Italian ryegrass (Lolium multiflorum); experiment: Test A postemergence; conditions: Lolium multiflorum, post-emergence, 240 h, 0 to 100 scale, read-out: Plant response rating, Ryegrass, Italian; for pest or weed control at 31 g/ha: 31 g ai/ha; for pest or weed control at 125 g/ha: 125 g ai/ha
Method in brief: as §2

[11] = tested on: barnyardgrass (Echinochloa crus-galli); experiment: Test A postemergence; conditions: Echinochloa crus-galli, post-emergence, 240 h, 0 to 100 scale, read-out: Plant response rating, Barnyardgrass; for pest or weed control at 31 g/ha: 31 g ai/ha; for pest or weed control at 125 g/ha: 125 g ai/ha
Method in brief: as §2

[12] = tested on: blackgrass (Alopecurus myosuroides); experiment: Test A postemergence; conditions: Alopecurus myosuroides, post-emergence, 240 h, 0 to 100 scale, read-out: Plant response rating, Blackgrass; for pest or weed control at 31 g/ha: 31 g ai/ha; for pest or weed control at 125 g/ha: 125 g ai/ha
Method in brief: as §2

corn (Zea mays) = experiment: Test A postemergence; conditions: Zea mays, post-emergence, 240 h, 0 to 100 scale; for Corn plant response rating (crop injury, 0 = no effect, 100 = complete kill) at 31 g/ha: 31 g ai/ha; for Corn plant response rating (crop injury, 0 = no effect, 100 = complete kill) at 125 g/ha: 125 g ai/ha
Method in brief: as §2

[13] = tested on: galium (catchweed bedstraw, Galium aparine); experiment: Test A postemergence; conditions: Galium, post-emergence, 240 h, 0 to 100 scale, read-out: Plant response rating, Galium; for pest or weed control at 31 g/ha: 31 g ai/ha; for pest or weed control at 125 g/ha: 125 g ai/ha
Method in brief: as §2

[14] = tested on: giant foxtail (Setaria faberii); experiment: Test A postemergence; conditions: Setaria faberi, post-emergence, 240 h, 0 to 100 scale, read-out: Plant response rating, Foxtail, Giant; for pest or weed control at 31 g/ha: 31 g ai/ha; for pest or weed control at 125 g/ha: 125 g ai/ha
Method in brief: as §2

kochia (Kochia scoparia) [15] = experiment: Test A postemergence; conditions: Bassia scoparia, post-emergence, 240 h, 0 to 100 scale, read-out: Plant response rating, Kochia; for pest or weed control at 31 g/ha: 31 g ai/ha; for pest or weed control at 125 g/ha: 125 g ai/ha
Method in brief: as §2

[16] = tested on: pigweed (Amaranthus retroflexus); experiment: Test A postemergence; conditions: Amaranthus retroflexus, post-emergence, 240 h, 0 to 100 scale, read-out: Plant response rating, Pigweed; for pest or weed control at 31 g/ha: 31 g ai/ha; for pest or weed control at 125 g/ha: 125 g ai/ha
Method in brief: as §2

[17] = tested on: ragweed (common ragweed, Ambrosia elatior); experiment: Test A postemergence; conditions: Ambrosia artemisiifolia, post-emergence, 240 h, 0 to 100 scale, read-out: Plant response rating, Ragweed; for pest or weed control at 31 g/ha: 31 g ai/ha; for pest or weed control at 125 g/ha: 125 g ai/ha
Method in brief: as §2

[18] = tested on: wheat (Triticum aestivum); experiment: Test A postemergence; conditions: Triticum aestivum, post-emergence, 240 h, 0 to 100 scale, read-out: Plant response rating, Wheat; for plant injury at 31 g/ha: 31 g ai/ha; for plant injury at 125 g/ha: 125 g ai/ha
Method in brief: as §2

## N#Cc1cccc(Oc2ncc(Cl)cn2)c1Oc1ccccc1Cl [Compound 40]
[1]
  pest or weed control at 250 g/ha: 0%
[2]
  pest or weed control at 250 g/ha: 0%
Rice (Oryza sativa)
  plant injury at 250 g/ha: 0%
[3]
  pest or weed control at 250 g/ha: 0%
[4]
  pest or weed control at 31 g/ha: 0%
  pest or weed control at 125 g/ha: 0%
[5]
  pest or weed control at 31 g/ha: 0%
  pest or weed control at 125 g/ha: 0%
[6]
  pest or weed control at 31 g/ha: 0%
  pest or weed control at 125 g/ha: 0%
Kochia (Kochia scoparia) [7]
  pest or weed control at 31 g/ha: 0%
  pest or weed control at 125 g/ha: 0%
[8]
  pest or weed control at 31 g/ha: 0%
  pest or weed control at 125 g/ha: 0%
[9]
  pest or weed control at 31 g/ha: 0%
  pest or weed control at 125 g/ha: 0%
[10]
  pest or weed control at 31 g/ha: 0%
  pest or weed control at 125 g/ha: 0%
[11]
  pest or weed control at 31 g/ha: 0%
  pest or weed control at 125 g/ha: 0%
[12]
  pest or weed control at 31 g/ha: 0%
  pest or weed control at 125 g/ha: 0%
Corn (Zea mays)
  Corn plant response rating (crop injury, 0 = no effect, 100 = complete kill) at 31 g/ha: 0%
  Corn plant response rating (crop injury, 0 = no effect, 100 = complete kill) at 125 g/ha: 0%
[13]
  pest or weed control at 31 g/ha: 0%
  pest or weed control at 125 g/ha: 10%
[14]
  pest or weed control at 31 g/ha: 0%
  pest or weed control at 125 g/ha: 0%
Kochia (Kochia scoparia) [15]
  pest or weed control at 31 g/ha: 0%
  pest or weed control at 125 g/ha: 0%
[16]
  pest or weed control at 31 g/ha: 0%
  pest or weed control at 125 g/ha: 30%
[17]
  pest or weed control at 31 g/ha: 0%
  pest or weed control at 125 g/ha: 0%
[18]
  plant injury at 31 g/ha: 0%
  plant injury at 125 g/ha: 0%

## N#Cc1cccc(Oc2ncc(Cl)cn2)c1Oc1ccc(Cl)cc1 [Compound 36]
[1]
  pest or weed control at 250 g/ha: 0%
[2]
  pest or weed control at 250 g/ha: 65%
Rice (Oryza sativa)
  plant injury at 250 g/ha: 0%
[3]
  pest or weed control at 250 g/ha: 95%
[4]
  pest or weed control at 31 g/ha: 0%
  pest or weed control at 125 g/ha: 20%
[5]
  pest or weed control at 31 g/ha: 0%
  pest or weed control at 125 g/ha: 40%
[6]
  pest or weed control at 31 g/ha: 70%
  pest or weed control at 125 g/ha: 90%
Kochia (Kochia scoparia) [7]
  pest or weed control at 31 g/ha: 10%
  pest or weed control at 125 g/ha: 50%
[8]
  pest or weed control at 31 g/ha: 60%
  pest or weed control at 125 g/ha: 100%
[9]
  pest or weed control at 31 g/ha: 0%
  pest or weed control at 125 g/ha: 0%
[10]
  pest or weed control at 31 g/ha: 0%
  pest or weed control at 125 g/ha: 10%
[11]
  pest or weed control at 31 g/ha: 10%
  pest or weed control at 125 g/ha: 30%
[12]
  pest or weed control at 31 g/ha: 20%
  pest or weed control at 125 g/ha: 40%
Corn (Zea mays)
  Corn plant response rating (crop injury, 0 = no effect, 100 = complete kill) at 31 g/ha: 20%
  Corn plant response rating (crop injury, 0 = no effect, 100 = complete kill) at 125 g/ha: 20%
[13]
  pest or weed control at 31 g/ha: 90%
  pest or weed control at 125 g/ha: 100%
[14]
  pest or weed control at 31 g/ha: 20%
  pest or weed control at 125 g/ha: 50%
Kochia (Kochia scoparia) [15]
  pest or weed control at 31 g/ha: 80%
  pest or weed control at 125 g/ha: 100%
[16]
  pest or weed control at 31 g/ha: 90%
  pest or weed control at 125 g/ha: 100%
[17]
  pest or weed control at 31 g/ha: 10%
  pest or weed control at 125 g/ha: 20%
[18]
  plant injury at 31 g/ha: 0%
  plant injury at 125 g/ha: 10%
